Data reported in ChEMBL document CHEMBL4433258, “Structure-activity relationships study of neolamellarin A and its analogues as hypoxia inducible factor-1 (HIF-1) inhibitors” (Bioorg Med Chem Lett, 2019).

What was measured:
[1] = Cytotoxicity against human HeLa cells assessed as growth inhibition incubated for 60 hrs under normoxic condition by MTT assay; assay type: cell-based
[2] = Inhibition of HIF-1 in human HeLa cells transfected with CMV driven renilla luciferase reporter gene incubated for 1 hr under normoxic condition and 12 hrs under hypoxia condition by HRE-based dual luciferase reporter gene assay; assay type: cell-based

SMILES	IC50 [2] [µM]	GI50 at 60 h [1] [µM]
O=C(c1ccccc1)n1cc(-c2ccc(O)cc2)c(-c2ccc(O)cc2)c1	16.8	32.9
O=C(CCc1ccc(O)cc1)n1cc(-c2ccc(O)cc2)c(-c2ccc(O)cc2)c1	14.7	51.5
COc1ccc(/C=C/C(=O)n2cc(-c3ccc(OC)cc3)c(-c3ccc(OC)cc3)c2)cc1	> 100	> 100
O=C(Cc1ccc(O)cc1)n1cc(-c2ccc(O)cc2)c(-c2ccc(O)cc2)c1 [NEOLAMELLARIN A]	10.8	59.5
O=C(c1ccc(O)cc1)n1cc(-c2ccc(O)cc2)c(-c2ccc(O)cc2)c1	18.8	76
COc1ccc(CCC(=O)n2cc(-c3ccc(OC)cc3)c(-c3ccc(OC)cc3)c2)cc1	26.8	> 100
COc1ccc(C(=O)n2cc(-c3ccc(OC)cc3)c(-c3ccc(OC)cc3)c2)cc1	24.4	> 100
O=C(c1ccccc1)n1cc(-c2ccccc2)c(-c2ccccc2)c1	16	67.1
COc1ccc(CC(=O)n2cc(-c3ccc(OC)cc3)c(-c3ccc(OC)cc3)c2)cc1	22.5	> 100

The next lines start with results.

IC50 [2] [µM]	SMILES	GI50 at 60 h [1] [µM]
11.9	COc1ccc(-c2cn(C(=O)C(O)c3ccc(OC)cc3)cc2-c2ccc(OC)cc2)cc1 (stereo unspecified)	44.2
> 50	COc1ccc(-c2cn(C(=O)C(OC)c3ccc(OC)cc3)cc2-c2ccc(OC)cc2)cc1 (stereo unspecified)	> 100
14.6	COc1ccc(-c2cn(C(=O)c3ccccc3)cc2-c2ccc(OC)cc2)cc1	> 100
16.6	O=C(/C=C/c1ccc(O)cc1)n1cc(-c2ccc(O)cc2)c(-c2ccc(O)cc2)c1	27.3
